The values that follow come from patent publication US9580758B2, “System and method for the detection and treatment of infection by a microbial agent associated with HIV infection” (priority 2013, dated 2017).

The test has as its system Rickettsiales-like agent. It is filed as cell-based.

As for `O=C(N[C@H](CO)[C@H](O)c1ccc([N+](=O)[O-])cc1)C(Cl)Cl` [chloramphenicol], the “sensitivity of the 400 bp sequence (grown with the Rickettsiales-like agent) to treatment in vitro” value is “sensitive”.
